Source: patent US6872718B1, “Tricyclic dihydrobenzofuran derivatives, process for the preparation thereof and agents” (Takeda Chemical Industries, Ltd., priority 1999, dated 2005)
Counter-ions that a name gives are not always drawn.

System: lipoperoxide produced in brain homogenate
Experiment: Inhibitory effect on lipid peroxidation in rat cerebral cortical homogenates (thiobarbituric acid method)
Assay type: biochemical
Details: rat cerebral cortical homogenate supernatant, 37° C. for 30 minutes, absorbance at 532 nm
Experimental: Inhibitory Effect on Lipid Peroxidation in Rat Cerebral Cortical Homogenates and Orally Treated Mice
Quantitative determination of lipoperoxide produced in brain homogenate was performed according to the method of Stocks et al. (Clin. Sci. Mol. Med. 47-215(1974)). As animals, brains of Jcl. Wistar male rats, 10-13 weeks age, were used. Rat cerebral cortices were obtained after decapitation, homogenized in an ice-cooled phosphate saline buffer (50 mM Ph 7.4) (Nichion Microhomogenizer, S-310E), centrifuged at 10,000 g for 10 minutes (Hitachi CF15D type, RT15A6 Anglerotor), and the supernatant was used in a test. This supernatant was diluted 3-fold with the same buffer. To this 1 mL were added […] of test drugs dissolved in dimethyl sulfoxide (DMSO) to the final concentration of 0.0125, 0.025, 0.05, 0.10, 0.20, 0.40, 0.80 and 1.60 μM, respectively, which was incubated at 37° C. for 30 minutes. The reaction was stopped by addition of 200 μL of 35% perchloric acid, and centrifuged at 13,000 g for 10 minutes. To 1 mL of this supernatant was added 0.5 mL of 2-thiobarbituric acid (500 mg/100 mL) dissolved in 50% acetic acid, heated to boil at 95° C. for 15 minutes, which was determined by the absorbance at 532 nm. […]

Row | IC50 [nM] | Structure (SMILES)
1 | 67 | Cc1c2c(c(C)c3c1NCC3)OC(C)(CN1CCC(c3ccccc3)CC1)C2 (centres unmarked) [Example 11, 3,5,6,7-Tetrahydro-2,4,8-trimethyl-2-[(4-phenylpiperidino)methyl]-2H-furo[2,3-f]indole]
2 | 360 | Cc1c2c(c(C)c3c1NCC3)OC(C)(CN1CCC(NC(c3ccccc3)c3ccccc3)CC1)C2 (centres unmarked) [Example 18, N-(Diphenylmethyl)-1-[(3,5,6,7-tetrahydro-2,4,8-trimethyl-2H-furo[2,3-f]indol-2-yl)methyl]-4-piperidinamine trihydrochloride]
